Measurements reported in the supplement of paper PMC10307832.

Columns and labels:
Experiment in all cases: relative viability (nuclei count vs DMSO), 5 days (fraction); higher = more cells survive
Bosutinib + Bortezomib = compound: COc1cc(Nc2c(C#N)cnc3cc(OCCCN4CCN(C)CC4)c(OC)cc23)c(Cl)cc1Cl [Bosutinib] + CC(C)C[C@H](NC(=O)[C@H](Cc1ccccc1)NC(=O)c1cnccn1)B(O)O [Bortezomib] (partner 0.002 µM)
How it was run: (§1)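 Five library-drug doses in √10 steps were combined with a fixed anchor-drug dose, or a single drug was given alone, by pin tool to lung cancer cell lines in 1536-well plates the day after seeding. Nuclei were stained and counted after 5 days. Relative viability is the nuclei count in treated wells over that in vehicle wells, taken as the median of duplicate plates.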

Bosutinib + Pictilisib = compound: COc1cc(Nc2c(C#N)cnc3cc(OCCCN4CCN(C)CC4)c(OC)cc23)c(Cl)cc1Cl [Bosutinib] + CS(=O)(=O)N1CCN(Cc2cc3nc(-c4cccc5[nH]ncc45)nc(N4CCOCC4)c3s2)CC1 [Pictilisib] (partner 1 µM)
How it was run: as §1

Bosutinib + Crizotinib = compound: COc1cc(Nc2c(C#N)cnc3cc(OCCCN4CCN(C)CC4)c(OC)cc23)c(Cl)cc1Cl [Bosutinib] + C[C@@H](Oc1cc(-c2cnn(C3CCNCC3)c2)cnc1N)c1c(Cl)ccc(F)c1Cl [Crizotinib] (partner 1 µM)
How it was run: as §1

Bosutinib + Linsitinib = compound: COc1cc(Nc2c(C#N)cnc3cc(OCCCN4CCN(C)CC4)c(OC)cc23)c(Cl)cc1Cl [Bosutinib] + C[C@]1(O)C[C@@H](c2nc(-c3ccc4ccc(-c5ccccc5)nc4c3)c3c(N)nccn32)C1 [Linsitinib] (partner 1 µM)
How it was run: as §1

Bosutinib + Alpelisib = compound: COc1cc(Nc2c(C#N)cnc3cc(OCCCN4CCN(C)CC4)c(OC)cc23)c(Cl)cc1Cl [Bosutinib] + Cc1nc(NC(=O)N2CCC[C@H]2C(N)=O)sc1-c1ccnc(C(C)(C)C(F)(F)F)c1 [Alpelisib] (partner 2 µM)
How it was run: as §1

Cell Line | relative viability (Bosutinib + Bortezomib; first compound 0.01 µM) | relative viability (Bosutinib + Bortezomib; first compound 0.03162 µM) | relative viability (Bosutinib + Bortezomib; first compound 0.1 µM) | relative viability (Bosutinib + Bortezomib; first compound 1 µM) | relative viability (Bosutinib + Pictilisib; first compound 0.01 µM) | relative viability (Bosutinib + Pictilisib; first compound 0.03162 µM) | relative viability (Bosutinib + Pictilisib; first compound 0.1 µM) | relative viability (Bosutinib + Pictilisib; first compound 1 µM) | relative viability (Bosutinib + Crizotinib; first compound 0.01 µM) | relative viability (Bosutinib + Crizotinib; first compound 0.03162 µM) | relative viability (Bosutinib + Crizotinib; first compound 0.1 µM) | relative viability (Bosutinib + Crizotinib; first compound 1 µM) | relative viability (Bosutinib + Linsitinib; first compound 0.01 µM) | relative viability (Bosutinib + Linsitinib; first compound 0.03162 µM) | relative viability (Bosutinib + Linsitinib; first compound 0.1 µM) | relative viability (Bosutinib + Linsitinib; first compound 1 µM) | relative viability (Bosutinib + Alpelisib; first compound 0.01 µM) | relative viability (Bosutinib + Alpelisib; first compound 0.03162 µM) | relative viability (Bosutinib + Alpelisib; first compound 0.1 µM) | relative viability (Bosutinib + Alpelisib; first compound 1 µM)
LXF-289 | 1 | 1.03 | 1.02 | 0.991 | 0.815 | 0.865 | 0.818 | 0.778 | 0.829 | 0.823 | 0.79 | 0.898 | 0.948 | 0.971 | 0.946 | 1.01 | 1.03 | 0.986 | 1.01 | 1.06
NCI-H23 | 1 | 1.21 | 1.04 | 1.05 | 0.523 | 0.503 | 0.531 | 0.481 | 0.636 | 0.464 | 0.512 | 0.458 | 0.442 | 0.556 | 0.647 | 0.46 | 0.674 | 0.666 | 0.519 | 0.546
NCI-H322M | 1.23 | 1.14 | 1.35 | 1.22 | 0.469 | 0.495 | 0.525 | 0.485 | 1.08 | 0.949 | 0.968 | 1 | 0.964 | 0.954 | 1.03 | 0.789 | 0.665 | 0.741 | 0.717 | 0.81
NCI-H441 | 0.579 | 0.726 | 0.44 | 0.806 | 0.669 | 0.483 | 0.634 | 0.459 | 0.909 | 0.705 | 0.808 | 1.3 | 0.583 | 0.504 | 0.58 | 0.543 | 0.475 | 0.689 | 0.733 | 1.11
NCI-H460 | 1.17 | 1.04 | 1.01 | 0.91 | 0.38 | 0.353 | 0.321 | 0.299 | 0.85 | 0.884 | 0.859 | 0.639 | 0.753 | 0.835 | 0.668 | 0.338 | 0.5 | 0.533 | 0.428 | 0.201
NCI-H520 | 0.771 | 0.419 | 0.52 | 0.396 | 0.309 | 0.279 | 0.288 | 0.281 | 0.806 | 0.74 | 0.635 | 0.676 | 1.05 | 1.05 | 1.03 | 0.767 | 0.96 | 0.786 | 0.968 | 0.66
NCI-H596 | 1 | 0.967 | 1.11 | 1.02 | 0.398 | 0.369 | 0.405 | 0.392 | 0.923 | 0.884 | 0.989 | 0.743 | 0.941 | 0.978 | 1.16 | 0.831 | 0.505 | 0.992 | 0.945 | 0.348
NCI-H647 | 1.06 | 1.06 | 0.919 | 0.405 | 0.508 | 0.436 | 0.432 | 0.372 | 1.03 | 1.23 | 1.07 | 0.687 | 0.913 | 1.11 | 1.21 | 0.817 | 1.34 | 1.33 | 1.03 | 0.543
NCI-H650 | 0.875 | 0.854 | 0.858 | 0.962 | 0.913 | 0.878 | 0.914 | 0.997 | 0.791 | 0.644 | 0.73 | 0.808 | 1.17 | 0.846 | 0.985 | 1.21 | 1.15 | 1.12 | 1.21 | 1.18
NCI-H661 | 1.05 | 0.802 | 0.733 | 0.446 | 0.351 | 0.53 | 0.386 | 0.327 |  | 1.06 | 0.989 | 0.633 | 0.678 | 0.571 | 0.57 | 0.323 | 0.407 | 0.881 | 0.88 | 0.477
NCI-H727 | 0.913 | 0.777 | 0.969 | 0.71 | 0.447 | 0.435 | 0.297 | 0.282 | 0.725 | 0.885 | 0.701 | 0.378 | 0.231 | 0.386 | 0.305 | 0.182 | 0.59 | 0.549 | 0.537 | 0.449
NCI-H838 | 0.97 | 0.794 | 0.78 | 0.577 | 0.468 | 0.429 | 0.414 | 0.319 | 0.845 | 0.79 | 0.737 | 0.354 | 1.04 | 0.97 | 0.951 | 0.466 | 0.961 | 0.879 | 0.864 | 0.432
NCI-H1355 | 1.27 | 1.24 | 1.3 | 1.21 | 0.465 | 0.545 | 0.572 | 0.412 | 1.07 | 1.04 | 1.12 | 0.905 | 0.824 | 0.792 | 0.872 | 0.687 | 0.871 | 0.816 | 0.893 | 0.72
NCI-H1437 | 0.599 | 0.485 | 0.464 | 0.436 | 0.465 | 0.395 | 0.54 | 0.483 | 0.858 | 0.922 | 0.898 | 0.82 | 1.06 | 1.05 | 0.962 | 0.781 | 0.939 | 0.954 | 1.04 | 0.862
NCI-H1563 | 0.885 | 0.775 | 0.784 | 0.659 | 0.611 | 0.607 | 0.613 | 0.526 | 0.896 | 0.753 | 0.753 | 0.658 | 1.24 | 1.2 | 1.06 | 0.792 | 0.905 | 0.904 | 0.859 | 0.63
NCI-H1651 | 0.914 | 0.942 | 0.994 | 0.978 | 0.579 | 0.62 | 0.62 | 0.687 | 0.783 | 0.89 | 0.888 | 0.773 | 0.911 | 1.02 | 0.939 | 0.724 | 0.928 | 0.961 | 0.854 | 0.734
NCI-H1666 | 0.794 | 0.74 | 0.977 | 0.746 | 0.469 | 0.32 | 0.417 | 0.405 | 1.2 | 0.987 | 0.916 | 0.912 | 0.774 | 0.774 | 0.794 | 0.662 | 0.982 | 0.947 | 1.07 | 0.865
NCI-H1703 | 0.34 | 0.332 | 0.402 | 0.236 | 0.246 | 0.235 | 0.242 | 0.228 | 0.769 | 0.667 | 0.493 | 0.319 | 0.804 | 0.932 | 0.587 | 0.388 | 0.351 | 0.378 | 0.294 | 0.261
NCI-H1734 | 0.948 | 0.951 | 0.827 | 0.879 | 0.507 | 0.427 | 0.447 | 0.447 | 0.737 | 0.656 | 0.658 | 0.537 | 0.88 | 0.945 | 0.914 | 0.706 | 0.642 | 0.632 | 0.748 | 0.59
NCI-H1755 | 0.941 | 1.07 | 1.03 | 0.894 | 0.45 | 0.497 | 0.509 | 0.287 | 0.804 | 0.953 | 0.903 | 0.688 | 0.952 | 1.03 | 1.02 | 0.954 | 0.916 | 0.961 | 0.998 | 0.739
NCI-H1792 | 0.991 | 0.95 | 0.974 | 0.884 | 0.299 | 0.27 | 0.367 | 0.332 | 0.984 | 0.978 | 0.981 | 1 | 0.638 | 0.525 | 0.586 | 0.449 | 0.774 | 0.677 | 0.757 | 0.505
NCI-H1915 | 0.942 | 0.932 | 1.02 | 1.01 | 1.04 | 0.988 | 1.02 | 0.968 | 0.932 | 0.89 | 0.98 | 0.956 | 1.04 | 1.1 | 1.08 | 1.14 | 1.03 | 1.07 | 1.1 | 1.06
NCI-H1975 | 0.432 | 0.399 | 0.424 | 0.388 | 0.283 | 0.318 | 0.338 | 0.253 | 0.926 | 0.965 | 1.01 | 0.849 | 0.932 | 0.833 | 0.952 | 0.722 | 0.615 | 0.688 | 0.67 | 0.433
NCI-H1993 | 1.11 | 1.26 | 1.08 | 0.949 | 0.827 | 0.896 | 0.967 | 0.741 | 0.816 | 0.875 | 0.686 | 0.602 | 0.749 | 0.759 | 0.645 | 0.762 | 0.635 | 0.69 | 0.641 | 0.669
NCI-H2009 | 1.17 | 1.08 | 1.1 | 0.795 | 0.997 | 0.866 | 0.927 | 0.557 | 1.05 | 1.07 | 1.03 | 0.66 | 1.18 | 1.22 | 1.2 | 0.886 | 1.2 | 1.15 | 1.1 | 0.767
NCI-H2023 | 0.945 | 1.01 | 1.06 | 0.813 | 0.25 | 0.235 | 0.272 | 0.233 | 0.538 | 0.613 | 0.511 | 0.366 | 0.763 | 0.743 | 0.62 | 0.402 | 0.581 | 0.655 | 0.538 | 0.426
